PMC10999558, “Analyzing resistome in soil and Human gut: a study on the characterization and risk evaluation of antimicrobial peptide resistance” (Frontiers in Microbiology, 2024)

Columns and labels:
Assay type in all cases: cell-based, Escherichia coli
Settings in all cases: MHB, 37°C, 24 h, triplicate
E. coli BL21(DE3) = assay: MIC, broth microdilution, retransformed E. coli BL21(DE3)
Method: (§1) Escherichia coli DH5α, E. coli BL21(DE3), and E. coli JM109 were utilized in this study.
(§2) The MICs were determined using the broth microdilution method in 96-well microtiter plates ([Wiegand et al., 2008]). In brief, a 1:100 dilution of the mid-exponential phase bacterial culture (OD600 = 0.5), consisting of 5 μL (1 × 10^5 CFU/mL), was introduced into polypropylene 96-well plates. These plates contained a two-fold dilution series of AMP in a total volume of 100 μL MHB per well. The incubation of the plates occurred at 37°C in a humidity chamber. The MIC was identified as the lowest concentration that hindered visible bacterial growth after 24 h of incubation. Each experiment was conducted in triplicate.
(§3) Before washing down the colonies, we randomly selected two clones from each plate containing distinct AMP. Colony PCRs were conducted using M13 primer pairs to validate the presence of inserts and determine their sizes. The selected colonies were then subjected to sequencing. The specific details are provided in Supplementary Table S2. Following that, plasmids were isolated using the Plasmid Midiprep Kit (Zomanbio, ZP103) following the manufacturer’s guidelines. After the plasmids were successfully reintroduced into E. coli JM109 and E. coli BL 21(DE3), the MICs of the transformed strains against the AMP used for selection were tested. This testing process was carried out in triplicate.
(§4) Following validation, the colonies displaying resistance underwent additional testing via MIC assessments for the remaining four AMPs that were not employed during the selection process. This experimental procedure was carried out in triplicate.

E. coli DH5α = assay: MIC, broth microdilution, E. coli DH5α carrying pUC118 or resistance-conferring plasmids
Method: as §1, §2, §4

E. coli JM109 = assay: MIC, broth microdilution, retransformed E. coli JM109
Method: as §1, §2, §3, §4

Work on Colistin [CST] yielded an MIC (E. coli BL21(DE3); colony pUC118-BL21(DE3) (control, no insert)) of 1 µg/mL, an MIC (E. coli BL21(DE3); colony pUC118-FCST1-BL21(DE3) (feces insert 1 selected against colistin)) of 2 µg/mL and an MIC (E. coli BL21(DE3); colony pUC118-FCST2-BL21(DE3) (feces insert 2 selected against colistin)) of 2 µg/mL. It also gave an MIC (E. coli BL21(DE3); colony pUC118-FGQ1-BL21(DE3) (feces insert 1 selected against melittin)) of 2 µg/mL, an MIC (E. coli BL21(DE3); colony pUC118-FGQ2- BL21(DE3) (feces insert 2 selected against melittin)) of 2 µg/mL and an MIC (E. coli BL21(DE3); colony pUC118-FIB1-BL21(DE3) (feces insert 1 selected against iseganan)) of 1 µg/mL. It also gave an MIC (E. coli BL21(DE3); colony pUC118-FIB2-BL21(DE3) (feces insert 2 selected against iseganan)) of 2 µg/mL, an MIC (E. coli BL21(DE3); colony pUC118-FPB1-BL21(DE3) (feces insert 1 selected against polymyxin B)) of 4 µg/mL and an MIC (E. coli BL21(DE3); colony pUC118-FPB2-BL21(DE3) (feces insert 2 selected against polymyxin B)) of 2 µg/mL. For the same substance, the MIC (E. coli BL21(DE3); colony pUC118-FSA1-BL21(DE3) (feces insert 1 selected against cathelicidin-DM)) was 2 µg/mL, the MIC (E. coli BL21(DE3); colony pUC118-FSA2-BL21(DE3) (feces insert 2 selected against cathelicidin-DM)) was 2 µg/mL and the MIC (E. coli BL21(DE3); colony pUC118-SCST1-BL21(DE3) (soil insert 1 selected against colistin)) was 2 µg/mL. The MIC (E. coli BL21(DE3); colony pUC118-SCST2-BL21(DE3) (soil insert 2 selected against colistin)) was 2 µg/mL, the MIC (E. coli BL21(DE3); colony pUC118-SGQ1-BL21(DE3) (soil insert 1 selected against melittin)) was 1 µg/mL and the MIC (E. coli BL21(DE3); colony pUC118-SGQ2-BL21(DE3) (soil insert 2 selected against melittin)) was 1 µg/mL. For the same substance, the MIC (E. coli BL21(DE3); colony pUC118-SIB1-BL21(DE3) (soil insert 1 selected against iseganan)) was 1 µg/mL, the MIC (E. coli BL21(DE3); colony pUC118-SIB2-BL21(DE3) (soil insert 2 selected against iseganan)) was 1 µg/mL and the MIC (E. coli BL21(DE3); colony pUC118-SPB1-BL21(DE3) (soil insert 1 selected against polymyxin B)) was 1 µg/mL. The MIC (E. coli BL21(DE3); colony pUC118-SPB2-BL21(DE3) (soil insert 2 selected against polymyxin B)) was 2 µg/mL, the MIC (E. coli BL21(DE3); colony pUC118-SSA1-BL21(DE3) (soil insert 1 selected against cathelicidin-DM)) was 2 µg/mL and the MIC (E. coli BL21(DE3); colony pUC118-SSA2-BL21(DE3) (soil insert 2 selected against cathelicidin-DM)) was 2 µg/mL. For the same substance, the MIC (E. coli DH5α; E. coli DH5α containing pUC118 plasmids) was 0.25 µg/mL, the MIC (E. coli DH5α; colony pUC118-DH5α (control, no insert)) was 0.25 µg/mL and the MIC (E. coli DH5α; colony pUC118-FCST1-DH5α (feces insert 1 selected against colistin)) was 0.5 µg/mL. It also gave an MIC (E. coli DH5α; colony pUC118-FCST2-DH5α (feces insert 2 selected against colistin)) of 0.5 µg/mL, an MIC (E. coli DH5α; colony pUC118-FGQ1-DH5α (feces insert 1 selected against melittin)) of 0.5 µg/mL and an MIC (E. coli DH5α; colony pUC118-FGQ2-DH5α (feces insert 2 selected against melittin)) of 0.5 µg/mL. For the same substance, the MIC (E. coli DH5α; colony pUC118-FIB1-DH5α (feces insert 1 selected against iseganan)) was 0.25 µg/mL, the MIC (E. coli DH5α; colony pUC118-FIB2-DH5α (feces insert 2 selected against iseganan)) was 1 µg/mL and the MIC (E. coli DH5α; colony pUC118-FPB1-DH5α (feces insert 1 selected against polymyxin B)) was 2 µg/mL. The MIC (E. coli DH5α; colony pUC118-FPB2-DH5α (feces insert 2 selected against polymyxin B)) was 1 µg/mL, the MIC (E. coli DH5α; colony pUC118-FSA1-DH5α (feces insert 1 selected against cathelicidin-DM)) was 0.5 µg/mL and the MIC (E. coli DH5α; colony pUC118-FSA2-DH5α (feces insert 2 selected against cathelicidin-DM)) was 0.5 µg/mL. The MIC (E. coli DH5α; colony pUC118-SCST1-DH5α (soil insert 1 selected against colistin)) was 0.5 µg/mL, the MIC (E. coli DH5α; colony pUC118-SCST2-DH5α (soil insert 2 selected against colistin)) was 1 µg/mL and the MIC (E. coli DH5α; colony pUC118-SGQ1-DH5α (soil insert 1 selected against melittin)) was 0.25 µg/mL. The MIC (E. coli DH5α; colony pUC118-SGQ2-DH5α (soil insert 2 selected against melittin)) was 0.25 µg/mL, the MIC (E. coli DH5α; colony pUC118-SIB1-DH5α (soil insert 1 selected against iseganan)) was 0.25 µg/mL and the MIC (E. coli DH5α; colony pUC118-SIB2-DH5α (soil insert 2 selected against iseganan)) was 0.25 µg/mL. For the same substance, the MIC (E. coli DH5α; colony pUC118-SPB1-DH5α (soil insert 1 selected against polymyxin B)) was 0.25 µg/mL, the MIC (E. coli DH5α; colony pUC118-SPB2-DH5α (soil insert 2 selected against polymyxin B)) was 0.5 µg/mL and the MIC (E. coli DH5α; colony pUC118-SSA1-DH5α (soil insert 1 selected against cathelicidin-DM)) was 0.5 µg/mL. For the same substance, the MIC (E. coli DH5α; colony pUC118-SSA2-DH5α (soil insert 2 selected against cathelicidin-DM)) was 1 µg/mL, the MIC (E. coli JM109; colony pUC118-FCST1-JM109 (feces insert 1 selected against colistin)) was 0.5 µg/mL and the MIC (E. coli JM109; colony pUC118-FCST2-JM109 (feces insert 2 selected against colistin)) was 1 µg/mL. The MIC (E. coli JM109; colony pUC118-FGQ1-JM109 (feces insert 1 selected against melittin)) was 0.5 µg/mL, the MIC (E. coli JM109; colony pUC118-FGQ2-JM109 (feces insert 2 selected against melittin)) was 0.5 µg/mL and the MIC (E. coli JM109; colony pUC118-FIB1-JM109 (feces insert 1 selected against iseganan)) was 0.25 µg/mL. The MIC (E. coli JM109; colony pUC118-FIB2-JM109 (feces insert 2 selected against iseganan)) was 0.5 µg/mL, the MIC (E. coli JM109; colony pUC118-FPB1-JM109 (feces insert 1 selected against polymyxin B)) was 1 µg/mL and the MIC (E. coli JM109; colony pUC118-FPB2-JM109 (feces insert 2 selected against polymyxin B)) was 0.5 µg/mL. It also gave an MIC (E. coli JM109; colony pUC118-FSA1-JM109 (feces insert 1 selected against cathelicidin-DM)) of 2 µg/mL, an MIC (E. coli JM109; colony pUC118-FSA2-JM109 (feces insert 2 selected against cathelicidin-DM)) of 0.5 µg/mL and an MIC (E. coli JM109; colony pUC118-JM109 (control, no insert)) of 0.25 µg/mL. For the same substance, the MIC (E. coli JM109; colony pUC118-SCST1-JM109 (soil insert 1 selected against colistin)) was 0.5 µg/mL, the MIC (E. coli JM109; colony pUC118-SCST2-JM109 (soil insert 2 selected against colistin)) was 0.5 µg/mL and the MIC (E. coli JM109; colony pUC118-SGQ1-JM109 (soil insert 1 selected against melittin)) was 0.25 µg/mL. The MIC (E. coli JM109; colony pUC118-SGQ2-JM109 (soil insert 2 selected against melittin)) was 0.25 µg/mL, the MIC (E. coli JM109; colony pUC118-SIB1-JM109 (soil insert 1 selected against iseganan)) was 0.25 µg/mL and the MIC (E. coli JM109; colony pUC118-SIB2-JM109 (soil insert 2 selected against iseganan)) was 0.25 µg/mL. For the same substance, the MIC (E. coli JM109; colony pUC118-SPB1-JM109 (soil insert 1 selected against polymyxin B)) was 0.25 µg/mL, the MIC (E. coli JM109; colony pUC118-SPB2-JM109 (soil insert 2 selected against polymyxin B)) was 0.5 µg/mL and the MIC (E. coli JM109; colony pUC118-SSA1-JM109 (soil insert 1 selected against cathelicidin-DM)) was 0.5 µg/mL. It also gave an MIC (E. coli JM109; colony pUC118-SSA2-JM109 (soil insert 2 selected against cathelicidin-DM)) of 0.25 µg/mL.
